Measured values reported in the supplement of paper PMC10307832.

Legend:
Experiment in all cases: relative viability (nuclei count vs DMSO), 5 days (fraction); higher = more cells survive
NCI-H596 = tested on: NCI-H596
Outline: (§1)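 Lung cancer cell lines were pin-tool dosed in 1536-well plates on the day after seeding, with either a lone drug or a fixed anchor-drug dose plus five library-drug doses (not always all listed) in √10 steps. Nuclei were counted on 4× images after 5 days. Relative viability is the ratio of treated-well to vehicle-well nuclei counts, with each value a median of duplicate plates.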

SK-LU-1 = tested on: SK-LU-1
Outline: as §1

PC-3 [JPC-3] = tested on: PC-3 [JPC-3]
Outline: as §1

NCI-H1755 = tested on: NCI-H1755
Outline: as §1

NCI-H2009 = tested on: NCI-H2009
Outline: as §1

PC-14 = tested on: PC-14
Outline: as §1

NCI-H460 = tested on: NCI-H460
Outline: as §1

NCI-H1437 = tested on: NCI-H1437
Outline: as §1

HCC-15 = tested on: HCC-15
Outline: as §1

LXF-289 = tested on: LXF-289
Outline: as §1

H3255 = tested on: H3255
Outline: as §1

NCI-H1793 = tested on: NCI-H1793
Outline: as §1

For `O=c1[nH]c2ccccc2n1C1CCN(CCCC(c2ccc(F)cc2)c2ccc(F)cc2)CC1` [Pimozide] + C[C@]1(O)C[C@@H](c2nc(-c3ccc4ccc(-c5ccccc5)nc4c3)c3c(N)nccn32)C1 [Linsitinib] (partner 1 µM), the relative viability (NCI-H596; first compound 0.08 µM) was 1.16, the relative viability (NCI-H596; first compound 0.253 µM) was 1.12 and the relative viability (NCI-H596; first compound 0.8 µM) was 1.04. The relative viability (NCI-H596; first compound 2.53 µM) was 0.895, the relative viability (NCI-H596; first compound 8 µM) was 0.998 and the relative viability (SK-LU-1; first compound 0.08 µM) was 1.11. The relative viability (SK-LU-1; first compound 0.253 µM) was 1.12, the relative viability (SK-LU-1; first compound 0.8 µM) was 0.902 and the relative viability (SK-LU-1; first compound 2.53 µM) was 0.732. For the same compound, the relative viability (SK-LU-1; first compound 8 µM) was 0.851, the relative viability (PC-3 [JPC-3]; first compound 0.253 µM) was 0.985 and the relative viability (PC-3 [JPC-3]; first compound 0.8 µM) was 0.896. For the same compound, the relative viability (PC-3 [JPC-3]; first compound 2.53 µM) was 0.983, the relative viability (PC-3 [JPC-3]; first compound 8 µM) was 0.883 and the relative viability (NCI-H1755; first compound 0.08 µM) was 0.94. It also gave a relative viability (NCI-H1755; first compound 0.253 µM) of 1.02, a relative viability (NCI-H1755; first compound 0.8 µM) of 0.97 and a relative viability (NCI-H1755; first compound 2.53 µM) of 0.939. It also gave a relative viability (NCI-H1755; first compound 8 µM) of 0.845, a relative viability (NCI-H2009; first compound 0.08 µM) of 1.19 and a relative viability (NCI-H2009; first compound 0.253 µM) of 1.21. For the same compound, the relative viability (NCI-H2009; first compound 0.8 µM) was 1.2, the relative viability (NCI-H2009; first compound 2.53 µM) was 1.2 and the relative viability (NCI-H2009; first compound 8 µM) was 1.01. For the same compound, the relative viability (PC-14; first compound 0.253 µM) was 0.94, the relative viability (PC-14; first compound 0.8 µM) was 0.99 and the relative viability (PC-14; first compound 2.53 µM) was 0.938. It also gave a relative viability (PC-14; first compound 8 µM) of 0.91, a relative viability (NCI-H460; first compound 0.08 µM) of 0.964 and a relative viability (NCI-H460; first compound 0.253 µM) of 0.725. It also gave a relative viability (NCI-H460; first compound 0.8 µM) of 0.707, a relative viability (NCI-H460; first compound 2.53 µM) of 0.727 and a relative viability (NCI-H460; first compound 8 µM) of 0.649. The relative viability (NCI-H1437; first compound 0.08 µM) was 1.09, the relative viability (NCI-H1437; first compound 0.253 µM) was 1.11 and the relative viability (NCI-H1437; first compound 0.8 µM) was 0.932. It also gave a relative viability (NCI-H1437; first compound 2.53 µM) of 0.899, a relative viability (NCI-H1437; first compound 8 µM) of 0.893 and a relative viability (HCC-15; first compound 0.08 µM) of 0.91. For the same compound, the relative viability (HCC-15; first compound 0.253 µM) was 0.911, the relative viability (HCC-15; first compound 0.8 µM) was 0.847 and the relative viability (HCC-15; first compound 2.53 µM) was 0.744. The relative viability (HCC-15; first compound 8 µM) was 0.796, the relative viability (LXF-289; first compound 0.08 µM) was 0.928 and the relative viability (LXF-289; first compound 0.253 µM) was 0.902. It also gave a relative viability (LXF-289; first compound 0.8 µM) of 0.964, a relative viability (LXF-289; first compound 2.53 µM) of 0.946 and a relative viability (LXF-289; first compound 8 µM) of 0.886. It also gave a relative viability (H3255; first compound 0.253 µM) of 0.905, a relative viability (H3255; first compound 0.8 µM) of 0.96 and a relative viability (H3255; first compound 2.53 µM) of 0.959. It also gave a relative viability (H3255; first compound 8 µM) of 0.903, a relative viability (NCI-H1793; first compound 0.08 µM) of 0.871 and a relative viability (NCI-H1793; first compound 0.253 µM) of 0.612. It also gave a relative viability (NCI-H1793; first compound 0.8 µM) of 0.861 and a relative viability (NCI-H1793; first compound 2.53 µM) of 0.88.
